Values quoted from earlier work in US20200390743A1, “Methods and Compositions For Improving Outcomes of Cancer Patients” (Reven IP HoldCo LLC, priority 2019, published 2020).

Assays:
[1] = 241 osteoporotic women
[2] = rats, 100 mg/kg body weight daily

Q: What does the source list for CC(C)=CCC/C(C)=C/CC/C(C)=C/CC/C(C)=C/CC1=C(C)C(=O)c2ccccc2C1=O [Vitamin K2]?
A: fracture incidence ([1]; 45 mg/day vitamin K2 and 150 mg elemental calcium, two years, 30% in control group): 10%; lumbar bone mineral density ([1]; 45 mg/day, after two years): maintain; calcium in kidneys and aorta induced by megadose of synthetic vitamin D [2]: inhibited the increase in calcium; total cholesterol levels, lipid peroxidation, ester cholesterol deposition in the aorta and factor X activity in plasma (compared to the control group): reduce; atherosclerotic plaque progression in the aorta and pulmonary arteries (rabbits, 1-10 mg/kg daily for 10 weeks): inhibited the atherosclerotic plaque progression
